As usually defined, the IC50 is the concentration needed to halve the response being measured.

Data set [1] can be described thus: Metabolic stability in pooled human liver microsomes with or without NADPH. The data set is classed as in vitro ADME. The settings on record: pooled human liver microsomes 0.5 mg/mL in PBS, 1 uM test compound, 37° C.; for half-life at 1 uM: human, pooled human liver microsomes. On the procedure: Pooled human liver microsomes in PBS at a concentration of 0.5 mg/mL was incubated with or without 1 mM NADPH for 70 min at 37° C. Test compound was added after 10 minutes to a final concentration of 1 uM. Samples were withdrawn at 0, 5, 15 and 60 minutes and added to test tubes containing acetonitrile, to stop the reaction, and with terfenadine, used as internal standard. After centrifugation at 10000×g for 5 minutes the supernatant was diluted 1:1 with 1% formic acid. Samples were separated on a reverse phase column and detected by triple quadrupole MSMS (Agilant model 6540). The concentration of the parent compound at the different time points was measured with an external standard curve using terfenadine as internal standard and the initial metabolic rate in the presence or absence of NADPH calculated.
For orientation: Microsomes from liver hold many membrane-bound enzymes, among them those of drug oxidation.

The test system of a further data set is CYP3A4&5. The experiment in a line: CYP inhibition in human liver microsomes (Eurofins protocol ITEMG232), testosterone substrate. As to conditions: for CYP3A4&5 testosterone Inh %: 10 μM; for inhibition at 10 µM: probe testosterone, read-out: CYP3A4&5 testosterone Inh %. It is filed as in vitro ADME. On the procedure: (§1) The following substrates were used; CYP1A phenacetin, CYP2B6 bupropion, CYP2C8 paclitaxel and amodiaquine, CYP2C9 diclofenac, CYP2C19 omeprazole, CYP2D6 dextromethorphan, CYP3A midazolam and testosterone.
(§2) At the end of the incubation, the formation of metabolite was monitored by HPLC-MS/MS as the peak area response.

A further data set addresses T1, CYP1A (Homo sapiens, UniProt P05177).
T1 construct: using isoform-specific substrates incubated with human liver microsomes; tissue Eurofins ITEMG232; host or cells: human liver microsomes
T1 sequence (P05177 2-516 limits assumed): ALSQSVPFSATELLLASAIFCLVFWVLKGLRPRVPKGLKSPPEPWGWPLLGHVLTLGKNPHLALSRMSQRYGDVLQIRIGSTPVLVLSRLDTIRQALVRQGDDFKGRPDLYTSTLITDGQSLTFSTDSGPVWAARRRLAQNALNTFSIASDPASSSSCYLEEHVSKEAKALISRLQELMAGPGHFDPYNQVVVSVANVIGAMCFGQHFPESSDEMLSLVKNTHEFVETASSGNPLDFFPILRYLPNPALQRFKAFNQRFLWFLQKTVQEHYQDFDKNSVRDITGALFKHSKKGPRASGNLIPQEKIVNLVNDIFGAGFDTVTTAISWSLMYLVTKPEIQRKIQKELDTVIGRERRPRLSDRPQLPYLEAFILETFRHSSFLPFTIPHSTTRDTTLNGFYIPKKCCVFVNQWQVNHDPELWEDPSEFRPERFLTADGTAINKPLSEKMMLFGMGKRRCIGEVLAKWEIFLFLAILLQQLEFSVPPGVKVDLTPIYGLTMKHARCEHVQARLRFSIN
As to the kind of experiment: CYP inhibition in human liver microsomes (Eurofins protocol ITEMG232). The settings on record: substrate phenacetin; for CYP1A Inh %: 10 μM; for inhibition at 10 µM: probe phenacetin, read-out: CYP1A Inh %. The data set is classed as in vitro ADME. On the procedure:
as §1, §2

For data set [2], the target named is T2, human recombinant AT1 receptor (Homo sapiens, UniProt P30556).
T2 sequence (P30556 1-359): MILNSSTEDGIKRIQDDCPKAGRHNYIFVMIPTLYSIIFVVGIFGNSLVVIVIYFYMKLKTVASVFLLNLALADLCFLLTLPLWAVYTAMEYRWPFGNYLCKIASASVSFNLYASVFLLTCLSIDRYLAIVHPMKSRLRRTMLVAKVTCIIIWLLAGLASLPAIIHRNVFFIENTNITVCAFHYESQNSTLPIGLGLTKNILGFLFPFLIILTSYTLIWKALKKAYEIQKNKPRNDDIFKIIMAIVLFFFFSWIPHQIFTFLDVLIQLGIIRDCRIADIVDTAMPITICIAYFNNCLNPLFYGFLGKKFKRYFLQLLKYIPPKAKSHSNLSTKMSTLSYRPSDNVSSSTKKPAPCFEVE
The experiment in a line: biochemical.
Description: (§3) Compounds were evaluated for binding to the human recombinant AT2 and AT1 receptor according to Eurofins protocol ITEM26 and ITEM24 using a radiometric scintillation assay.

For data set [3], the target named is T3, human recombinant AT2 receptor (Homo sapiens, UniProt P50052).
T3 sequence (P50052 1-363): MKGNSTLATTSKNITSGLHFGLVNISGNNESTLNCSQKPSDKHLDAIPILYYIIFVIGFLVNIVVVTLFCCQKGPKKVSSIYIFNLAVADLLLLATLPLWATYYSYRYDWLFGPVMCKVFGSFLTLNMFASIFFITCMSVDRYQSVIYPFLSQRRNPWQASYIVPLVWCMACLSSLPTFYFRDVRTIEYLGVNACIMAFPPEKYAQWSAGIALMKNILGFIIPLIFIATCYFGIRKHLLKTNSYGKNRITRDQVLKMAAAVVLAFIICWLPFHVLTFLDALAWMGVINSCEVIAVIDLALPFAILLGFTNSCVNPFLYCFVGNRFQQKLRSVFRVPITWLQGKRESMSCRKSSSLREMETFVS
As to the kind of experiment: biochemical.
Description: as §3

Where [4] appears, read: with 1 mM NADPH, read-out: T1/2, +NaDPH.
Where [5] appears, read: without NADPH, read-out: T1/2, no NaDPH.

Where two headings read alike, the source gives them in different places. Some results are limits rather than exact numbers.

`CCOC(=O)NS(=O)(=O)c1sc(CC(C)C)cc1-c1ccc(Cn2ccnc2C)c(F)c1.O=C(O)C(F)(F)F` [Example 1, Ethyl (3-(3-fluoro-4-((2-methyl-1H-imidazol-1-yl)methyl)phenyl)-5-isobutylthiophen-2-yl)sulfonvicarbamate trifluoroacetic acid]: the “T1/2, +NaDPH” value in data set [1] (with 1 mM NADPH) came to 50 min. The “T1/2, no NaDPH” value in data set [1] (without NADPH) is listed as 60 min. For the same molecule, the “CYP3A4&5 testosterone Inh %” value in the data set with CYP3A4&5 was −2%. The “CYP1A Inh %” value at CYP1A is given as 37%.
The corresponding values for `COCCOC(=O)NS(=O)(=O)c1sc(CC(C)C)cc1-c1ccc(Cn2ccnc2C)c(F)c1.O=C(O)C(F)(F)F` [Example 3] are greater than 60 min, greater than 60 min, −20% and −13%.
The corresponding values for `CCc1nccn1Cc1ccc(-c2cc(CC(C)C)sc2S(=O)(=O)NC(=O)OCc2ccc(F)cc2)cc1F.O=C(O)C(F)(F)F` [Example 6, 4-Fluorobenzyl (3-(4((2-ethyl-1H-imidazol-1-yl)methyl)-3-fluorophenyl)-5-isobutylthio-phen-2-yl)sulfonylcarbamate trifluoroacetic acid] are 7 min, 50 min, 13% and 35%.
The corresponding values for `CCOC(=O)NS(=O)(=O)c1sc(CC(C)C)cc1-c1ccc(Cn2ccnc2CC)c(F)c1.O=C(O)C(F)(F)F` [Example 7, Ethyl (3-(4-((2-ethyl-1H-imidazol-1-yl)methyl)-3-fluorophenyl)-5-isobutylthiophen-2-30 yl)sulfonylcarbamate trifluoroacetic acid] are 40 min, 40 min, 18% and 21%.
Consider `CCOC(=O)NS(=O)(=O)c1sc(CC(C)C)cc1-c1ccc(Cn2ccnc2C(C)C)c(F)c1.O=C(O)C(F)(F)F` [Example 8, Ethyl (3-(3-fluoro-4-((2-isopropyl-1H-imidazol-1-yl)methyl)phenyl)-5-isobutylthio-phen-2-yl)sulfonylcarbamate trifluoroacetic acid], for which the “T1/2, +NaDPH” value in data set [1] (with 1 mM NADPH) was found to be 46 min. The “T1/2, no NaDPH” value in data set [1] (without NADPH) stood at 53 min. Also, the “CYP3A4&5 testosterone Inh %” value in the data set with CYP3A4&5 is on record as −20%. For the same molecule, at CYP1A, the “CYP1A Inh %” value is reported as −13%.
In the same order, the values of `Cc1nccn1Cc1c(F)cc(-c2cc(CC(C)C)sc2S(=O)(=O)NC(=O)OCCO)cc1F` [Example 18, 2-Hydroxyethyl (3-(3,5-difluoro-4-((2-methyl-1H-imidazol-1-yl)methyl)phenv1)-5-isobutylthiophen-2-yl)sulfonylcarbamate] are 4 min, greater than 60 min, 1.7% and 15.2%.
For the molecule `Cc1nccn1Cc1ccc(-c2cc(CC(C)C)sc2S(=O)(=O)NC(=O)OCCOC(=O)C(C)(C)C)cc1F` [Example 19, 2-((((3-(3-Fluoro-4-((2-methyl-1H-imidazol-1-yl)methyl)phenyl)-5-isobutylthiophen-2-yl)sulfonyl)carbamoyl)oxy)ethyl pivalate], the half-life at 1 uM in data set [1] (setting [4]) came to 1 min; in data set [1] (setting [5]), 12 min. The inhibition at 10 µM in the data set on CYP3A4&5 stood at 20.7%; on CYP1A, 84.3%. For the same molecule, the values for the IC50 in data set [2] and in data set [3] were 9 µM and 4.1 nM, respectively.
In the case of `CC(C)Cc1cc(-c2ccc(Cn3ccnc3C(C)(C)C)c(F)c2)c(S(=O)(=O)NC(=O)c2ccccn2)s1` [Example 27, N-((3-(4-((2-(Tert-Butyl)-1H-imidazol-1-yl)methyl)-3-fluorophenyl)-5-isobutylthio-phen-2-yl)sulfonyl)picolinamide], the half-life at 1 uM in data set [1] (setting [4]) and in data set [1] (setting [5]) was 4 min throughout. Moreover, the inhibition at 10 µM turned out to be 27.4% with CYP3A4&5 and 29% at CYP1A. Moreover, the results for the IC50 in data set [2] and in data set [3] were 2.3 µM and 1.82 nM, respectively.

Values taken from patent US20230348444A1, “NOVEL COMPOUNDS FOR USE IN THE TREATMENT OF DISEASES ASSOCIATED WITH ANGIOTENSIN II” (Vicore Pharma AB, priority 2020, published 2023).
